Experiment [1] concerns P. falciparum 3D7 parasites. The experiment is described as follows: P. falciparum growth inhibition assay, 1-cycle (72 h treatment), SYBR DNA staining (library screen at 2 μg/mL and dose-response). The following applies: for activity at 2 µg/mL: Plasmodium falciparum, 3D7, 72 h. The experiment is classed as cell-based, Plasmodium falciparum.
Experiment [2] has as its system T. gondii RH strain (RH-Tub-eYFP) tachyzoites. The experiment is described as follows: microbe, parasite or virus in culture. The experiment is classed as cell-based, Toxoplasma gondii. The settings on record: for percent parasite growth at 2 µg/mL: Toxoplasma gondii.
Experiment [3] relates to P. falciparum 3D7 parasites. The experiment is described as follows: P. falciparum growth inhibition assay, 2-cycle (120 h treatment), delayed-death screen and dose-response. Type of experiment: cell-based, Plasmodium falciparum. The settings on record: for activity at 2 µg/mL: Plasmodium falciparum, 3D7, 120 h.
The mark [4] stands for this setting: P. falciparum, 72 h, screen at 2 μg/mL, replicate 1.
Where [5] appears, read: P. falciparum, 72 h, screen at 2 μg/mL, replicate 2.
[6] abbreviates: T. gondii, 72 h, screen at 2 μg/mL, replicate 1.
The mark [7] stands for this setting: T. gondii, 72 h, screen at 2 μg/mL, replicate 2.
The mark [8] stands for this setting: P. falciparum, 120 h, screen at 2 μg/mL, replicate 1.
The mark [9] stands for this setting: P. falciparum, 120 h, screen at 2 μg/mL, replicate 2.
Where [10] appears, read: library screen at 2 μg/mL, 72 h, % growth, replicate 1.
[11] abbreviates: library screen at 2 μg/mL, 72 h, % growth, replicate 2.
The mark [12] stands for this setting: library screen at 2 μg/mL, 120 h, % growth, replicate 1.
The mark [13] stands for this setting: library screen at 2 μg/mL, 120 h, % growth, replicate 2.

Like-named read-outs stand apart in the source and are kept apart here.

`C/C=C/C[C@@H](C)[C@@H](O)[C@H]1C(=O)N[C@@H](C(C)C)C(=O)N(C)CC(=O)N(C)[C@@H](CC(C)C)C(=O)N[C@@H](C(C)C)C(=O)N(C)[C@@H](CC(C)C)C(=O)N[C@@H](C)C(=O)N[C@H](C)C(=O)N(C)[C@@H](CC(C)C)C(=O)N(C)[C@@H](CC(C)C)C(=O)N(C)[C@@H](C(C)C)C(=O)N1C` [Cyclosporin D]: the Pf_72h_%Growth_Rep1 in experiment [1] (setting [4]) came out at 1.31%. For the same molecule, the Pf_72h_%Growth_Rep2 in experiment [1] (setting [5]) is 3.21%. Also, in experiment [2] (setting [6]), the Tg_72h_%Growth_Rep1 came to 61.91%. In experiment [2] (setting [7]), this molecule showed a Tg_72h_%Growth_Rep2 of 54.60%. Also, the Pf_120h_%Growth_Rep1 in experiment [3] (setting [8]) was -2.52%. For the same molecule, the Pf_120h_%Growth_Rep2 in experiment [3] (setting [9]) is reported as -5.39%.
In experiment [1] (setting [10]), `C/C=C(\C)[C@H](O)[C@H](C)/C=C(C)/C=C/C/C(C)=C/Cc1oc(OC)c(C)c(=O)c1C` [Actinopyrone A] showed a Pf_72h_%Growth_Rep1 of 87.45%. Besides, the Pf_72h_%Growth_Rep2 in experiment [1] (setting [11]) was 86.38%. In experiment [2] (setting [10]), the Tg_72h_%Growth_Rep1 was 80.38%. The molecule also had a Tg_72h_%Growth_Rep2 in experiment [2] (setting [11]) of 90.86%. Moreover, the Pf_120h_%Growth_Rep1 in experiment [3] (setting [12]) is 139.24%. The Pf_120h_%Growth_Rep2 in experiment [3] (setting [13]) is listed as 89.64%.
Take `CCC(=O)CCCCC[C@@H]1NC(=O)[C@H]2CCCCN2C(=O)[C@H]([C@@H](C)CC)NC(=O)[C@H](Cc2cn(OC)c3ccccc23)NC1=O` [Apicidin]: the activity at 2 µg/mL in experiment [1] (library screen at 2 μg/mL, 72 h, % growth, replicate 1, read-out: Pf_72h_%Growth_Rep1) is 1.42%; in experiment [1] (library screen at 2 μg/mL, 72 h, % growth, replicate 2, read-out: Pf_72h_%Growth_Rep2) it was 5.38%; in experiment [3] (library screen at 2 μg/mL, 120 h, % growth, replicate 1, read-out: Pf_120h_%Growth_Rep1), 2.31%; in experiment [3] (library screen at 2 μg/mL, 120 h, % growth, replicate 2, read-out: Pf_120h_%Growth_Rep2), -15.8%. Further, the percent parasite growth at 2 µg/mL in experiment [2] (72 h, library screen at 2 μg/mL, 72 h, % growth, replicate 1, read-out: Tg_72h_%Growth_Rep1) is 6.14%; in experiment [2] (72 h, library screen at 2 μg/mL, 72 h, % growth, replicate 2, read-out: Tg_72h_%Growth_Rep2), 0.42%.
Turning to `COc1cc2c(c3oc(=O)c4c(c13)CCOC4=O)C1C=COC1O2` (stereo not drawn) [Aflatoxin G1], in experiment [1], the Pf_72h_%Growth_Rep1 was found to be 72.54% and the Pf_72h_%Growth_Rep2 amounted to 87.39%. In experiment [2], this molecule gave a Tg_72h_%Growth_Rep1 of 81.49% and a Tg_72h_%Growth_Rep2 of 92.08%. Besides, in experiment [3], the Pf_120h_%Growth_Rep1 was 145.89% and the Pf_120h_%Growth_Rep2 amounted to 92.80%.
In experiment [1] (P. falciparum, 72 h, parasite screen 2 μg/mL, % growth, replicate 1), `C[C@H]1NC(=O)[C@@H]2CCCCN2C(=O)CN(C)C(=O)CNC(=O)[C@@H]2CCCCN2C(=O)[C@H](NC(=O)c2nc3ccccc3cc2O)[C@@H](C)NC(=O)[C@@H]2CCCCN2C(=O)CN(C)C(=O)CNC(=O)[C@@H]2CCCCN2C(=O)[C@@H]1NC(=O)c1nc2ccccc2cc1O` [Quinaldopeptin] yielded a Pf_72h_%Growth_Rep1 of 9.69%. In experiment [1] (P. falciparum, 72 h, parasite screen 2 μg/mL, % growth, replicate 2), the Pf_72h_%Growth_Rep2 was determined as 1.67%. This molecule also yielded a Tg_72h_%Growth_Rep1 in experiment [2] (T. gondii, 72 h, parasite screen 2 μg/mL, % growth, replicate 1) of 3.09%. In addition, in experiment [2] (T. gondii, 72 h, parasite screen 2 μg/mL, % growth, replicate 2), the Tg_72h_%Growth_Rep2 is 0.65%. In addition, the Pf_120h_%Growth_Rep1 in experiment [3] (P. falciparum, 120 h, parasite screen 2 μg/mL, % growth, replicate 1) is 19.16%. Also, in experiment [3] (P. falciparum, 120 h, parasite screen 2 μg/mL, % growth, replicate 2), the Pf_120h_%Growth_Rep2 is 8.74%.
For `C=Cc1cc(OC)c2c(c1)c(=O)oc1c2cc(OC)c2c(O)ccc([C@H]3O[C@@H](C)[C@@H](O)[C@](C)(O)[C@@H]3O)c21` [Chrysomycin A], in experiment [1] (P. falciparum, 2 μg/mL, 72 h), the “1) Growth (%) at 72 h” value is given as 36.94%. Moreover, the Mean in experiment [1] (P. falciparum, 72 h, 2 μg/mL, mean of both replicates, growth (% of control)) is on record as 36.94. In experiment [1] (setting [4]), the Pf_72h_%Growth_Rep1 was 16.21%. Further, the Pf_72h_%Growth_Rep2 in experiment [1] (setting [5]) is 57.66%. For the same molecule, in experiment [2] (setting [6]), the Tg_72h_%Growth_Rep1 stood at 53.94%. The Tg_72h_%Growth_Rep2 in experiment [2] (setting [7]) is recorded as 65.86%. Besides, in experiment [3] (P. falciparum, 2 μg/mL, 120 h), the “2) Growth (%) at 120 h” value is listed as -1.07%. In addition, the Pf_120h_%Growth_Rep1 in experiment [3] (setting [8]) stood at 6.31%. Moreover, the Pf_120h_%Growth_Rep2 in experiment [3] (setting [9]) is on record as -8.44%.
In the case of `COC1=C(OC)C(=O)C(C)=C(C)C1=O` [Aurantiogliocladin], in experiment [1] (setting [10]), the Pf_72h_%Growth_Rep1 is recorded as 5.55%. The molecule also displayed a Pf_72h_%Growth_Rep2 in experiment [1] (setting [11]) of 9.01%. This molecule returned a Tg_72h_%Growth_Rep1 in experiment [2] (setting [10]) of 92.07%. The molecule further yielded a Tg_72h_%Growth_Rep2 in experiment [2] (setting [11]) of 99.65%. The Pf_120h_%Growth_Rep1 in experiment [3] (setting [12]) turned out to be 10.46%. Besides, the Pf_120h_%Growth_Rep2 in experiment [3] (setting [13]) was -13.06%.

For the origin of these results see PMC12396409, “Screening and hit evaluation of a microbial metabolite library against the pathogenic Plasmodium falciparum and Toxoplasma gondii parasites” (International Journal for Parasitology: Drugs and Drug …, 2025).
